Reference: patent US20090111778A1, “2-Keto-Oxazoles as Modulators of Fatty Acid Amide Hydrolase” (priority 2005, published 2009)

Experiments:
human FAAH = target: T1, human FAAH (Homo sapiens, UniProt O00519); experiment: Assay Method 1: FAAH assay, hydrolysis of 3H-anandamide by homogenate of SK-N-MC cells transfected with human FAAH; assay type: biochemical; conditions: human FAAH; T84 or transfected SK-N-MC cell homogenate; 3H-AEA tracer 80 nM; rt 1 h; pH 9; read-out: Assay 1 IC50
T1 construct: expressed in transfected cells
T1 sequence (O00519 1-579): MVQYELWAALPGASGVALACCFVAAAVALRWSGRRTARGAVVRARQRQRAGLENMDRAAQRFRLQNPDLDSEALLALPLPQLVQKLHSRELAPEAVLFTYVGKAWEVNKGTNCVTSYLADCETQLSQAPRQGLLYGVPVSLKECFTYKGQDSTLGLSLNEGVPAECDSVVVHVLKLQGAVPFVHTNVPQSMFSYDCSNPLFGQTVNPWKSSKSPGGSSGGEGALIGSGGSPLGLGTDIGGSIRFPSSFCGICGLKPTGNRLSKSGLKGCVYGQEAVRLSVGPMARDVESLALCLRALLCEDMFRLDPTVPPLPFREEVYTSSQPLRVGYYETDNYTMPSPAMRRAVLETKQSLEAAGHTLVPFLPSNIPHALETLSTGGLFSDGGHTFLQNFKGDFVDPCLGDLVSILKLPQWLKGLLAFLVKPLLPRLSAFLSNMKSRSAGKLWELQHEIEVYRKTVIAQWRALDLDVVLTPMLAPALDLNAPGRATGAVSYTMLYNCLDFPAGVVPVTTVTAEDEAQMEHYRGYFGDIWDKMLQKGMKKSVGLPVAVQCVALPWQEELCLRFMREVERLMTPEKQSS
Method: A. Transfection of Cells with Human FAAH
(§1) A 10-cm tissue culture dish with a confluent monolayer of SK-N-MC cells was split 2 days (d) prior to transfection. Using sterile technique, the media was removed and the cells were detached from the dish by the addition of trypsin. One fifth of the cells were then placed onto a new 10-cm dish. Cells were grown in a 37° C. incubator with 5% CO2 in Minimal Essential Media Eagle with 10% Fetal Bovine Serum. After 2 d, cells were approximately 80% confluent. These cells were removed from the dish with trypsin and pelleted in a clinical centrifuge. The pellet was re-suspended in 400 μL complete media and transferred to an electroporation cuvette with a 0.4 cm gap between the electrodes. Supercoiled human FAAH cDNA (1 μg) was added to the cells and mixed. The voltage for the electroporation was set at 0.25 kV, and the capacitance was set at 960 μF. After electroporation, the cells were diluted into complete media (10 mL) and plated onto four 10-cm dishes. Because of the variability in the efficiency of electroporation, four different concentrations of cells were plated. The ratios used were 1:20, 1:10, and 1:5, with the remainder of the cells being added to the fourth dish. The cells were allowed to recover for 24 h before adding the selection media (complete media with 600 μg/mL G418). After 10 d, dishes were analyzed for surviving colonies of cells. Dishes with well-isolated colonies were used. Cells from individual colonies were isolated and tested.
The assay mixture consisted of […] of the cell homogenate, 10 μL of the test compound, and 40 μL of anandamide [1-^3H-ethanolamine] (3H-AEA, Perkin-Elmer, 10.3 Ci/mmol), which was added last, for a final tracer concentration of 80 nM. The reaction mixture was incubated at rt for 1 h. During the incubation, 96-well Multiscreen filter plates (catalog number MAFCNOB50; Millipore, Bedford, Mass., USA) were loaded with 25 μL of activated charcoal (Multiscreen column loader, catalog number MACL09625, Millipore) and washed once with 100 μL of MeOH. Also during the incubation, 96-well DYNEX MicroLite plates (catalog number NL510410) were loaded with 100 μL of MicroScint40 (catalog number 6013641, Packard Bioscience, Meriden, Conn., USA). After the 1 h incubation, 60 μL of the reaction mixture were transferred to the charcoal plates, which were then assembled on top of the DYNEX plates using Centrifuge Alignment Frames (catalog number MACF09604, Millipore). The unbound labeled ethanolamine was centrifuged through to the bottom plate (5 min at 2000 rpm), which was preloaded with the scintillant, as described above. The plates were sealed and left at rt for 1 h before counting on a Hewlett Packard TopCount.

rat FAAH = target: T2, rat FAAH (Rattus norvegicus, UniProt P97612); experiment: Assay Method 2: FAAH assay, hydrolysis of 3H-anandamide by homogenate of SK-N-MC cells transfected with rat FAAH; assay type: biochemical; conditions: T84 or transfected SK-N-MC cell homogenate, 3H-AEA tracer 80 nM, rt 1 h, pH 9
T2 construct: expressed in transfected cells
T2 sequence (P97612 1-579): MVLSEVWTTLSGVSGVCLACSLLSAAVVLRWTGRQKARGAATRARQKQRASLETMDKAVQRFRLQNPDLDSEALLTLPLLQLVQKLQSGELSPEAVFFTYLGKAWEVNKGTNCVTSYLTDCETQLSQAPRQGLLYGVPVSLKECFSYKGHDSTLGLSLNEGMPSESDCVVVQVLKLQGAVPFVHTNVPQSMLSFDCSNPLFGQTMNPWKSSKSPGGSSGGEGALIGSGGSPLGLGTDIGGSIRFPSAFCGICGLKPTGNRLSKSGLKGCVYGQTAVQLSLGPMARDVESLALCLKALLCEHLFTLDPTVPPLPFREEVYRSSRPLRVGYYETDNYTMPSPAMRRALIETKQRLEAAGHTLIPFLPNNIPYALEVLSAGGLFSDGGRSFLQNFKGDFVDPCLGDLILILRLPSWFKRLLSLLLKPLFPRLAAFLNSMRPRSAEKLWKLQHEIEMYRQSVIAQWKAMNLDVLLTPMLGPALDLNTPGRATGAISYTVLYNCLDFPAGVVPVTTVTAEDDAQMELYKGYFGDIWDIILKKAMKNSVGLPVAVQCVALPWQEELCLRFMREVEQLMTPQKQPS
Method: as §1, with “A. Transfection of Cells with Rat FAAH A 10-cm” for “A 10-cm”, “electrodes. Supercoiled rat FAAH cDNA” for “electrodes. Supercoiled human FAAH cDNA”, “and tested. […] B. FAAH Assay […] The reaction mixture was incubated at rt for 1 h. During the incubation, 96-well Multiscreen filter plates (catalog number MAFCNOB50; Millipore, Bedford, Mass., USA) were loaded with 25 μL of activated charcoal (Multiscreen column loader, catalog number MACL09625, Millipore) and washed once with 100 μL of MeOH. Also during the incubation, 96-well DYNEX MicroLite plates (catalog number NL510410) were loaded with 100 μL of MicroScint40 (catalog number 6013641, Packard Bioscience, Meriden, Conn., USA). After the 1 h incubation, 60 μL of the reaction mixture were transferred to the charcoal plates, which were then assembled on top of the DYNEX plates using Centrifuge Alignment Frames (catalog number MACF09604, Millipore). The unbound labeled ethanolamine was centrifuged through to the bottom plate (5 min at 2000 rpm), which was preloaded with the scintillant, as described above. The plates were sealed and left at rt for 1 h before counting on a Hewlett Packard TopCount.” for “and tested.”

## Cc1ccc(CN2CCC(CCCC(=O)c3ncco3)CC2)cc1 [Example 18, 4-[1-(4-Methyl-benzyl)-piperidin-4-yl]-1-oxazol-2-yl-butan-1-one]
Human FAAH
  IC50: 400 nM
Rat FAAH
  IC50: 1000 nM

## Cc1cccc(CN2CCC(CCCC(=O)c3ncco3)CC2)c1 [Example 19, 4-[1-(3-Methyl-benzyl)-piperidin-4-yl]-1-oxazol-2-yl-butan-1-one]
Human FAAH
  IC50: 90 nM
Rat FAAH
  IC50: 305 nM

## O=C(CCCC1CCN(Cc2ccc3ccccc3c2)CC1)c1ncco1 [Example 20, 4-(1-Naphthalen-2-ylmethyl-piperidin-4-yl)-1-oxazol-2-yl-butan-1-one]
Human FAAH
  IC50: 8 nM
Rat FAAH
  IC50: 9 nM

## O=C(CCCC1CCN(Cc2cnc3ccccc3c2)CC1)c1ncco1 [Example 21, 1-Oxazol-2-yl-4-(1-quinolin-3-ylmethyl-piperidin-4-yl)-butan-1-one]
Human FAAH
  IC50: 29 nM
Rat FAAH
  IC50: 86 nM

## CC(C)c1ccc(CN2CCC(CCCC(=O)c3ncco3)CC2)cc1 [Example 22, 4-[1-(4-Isopropyl-benzyl)-piperidin-4-yl]-1-oxazol-2-yl-butan-1-one]
Human FAAH
  IC50: 3 nM
Rat FAAH
  IC50: 5 nM

## CC(C)Oc1ccc(CN2CCC(CCCC(=O)c3ncco3)CC2)cc1 [Example 23, 4-[1-(4-isopropoxy-benzyl)-piperidin-4-yl]-1-oxazol-2-yl-butan-1-one]
Human FAAH
  IC50: 14 nM
Rat FAAH
  IC50: 31 nM

## CC(C)(C)Oc1ccc(CN2CCC(CCCC(=O)c3ncco3)CC2)cc1 [Example 24, 4-[1-(4-tert-Butoxy-benzyl)-piperidin-4-yl]-1-oxazol-2-yl-butan-1-one]
Human FAAH
  IC50: 32 nM
Rat FAAH
  IC50: 18 nM

## CC(C)(C)CC(=O)N1CCC(CCCC(=O)c2ncco2)CC1 [Example 25, 3,3-Dimethyl-1-[4-(4-oxazol-2-yl-4-oxo-butyl)-piperidin-1-yl]-butan-1-one]
Human FAAH
  IC50: 90 nM
Rat FAAH
  IC50: 320 nM

## CC(C)CC(=O)N1CCC(CCCC(=O)c2ncco2)CC1 [Example 26, 3-Methyl-1-[4-(4-oxazol-2-yl-4-oxo-butyl)-piperidin-1-yl]-butan-1-one]
Human FAAH
  IC50: 400 nM
Rat FAAH
  IC50: 900 nM

## O=C(CCCC1CCN(C(=O)Cc2ccccc2)CC1)c1ncco1 [Example 27, 1-Oxazol-2-yl-4-(1-phenylacetyl-piperidin-4-yl)-butan-1-one]
Human FAAH
  IC50: 500 nM
Rat FAAH
  IC50: 1300 nM

## O=C(CCCC1CCN(C(=O)c2ccccc2)CC1)c1ncco1 [Example 28, 4-(1-Benzoyl-piperidin-4-yl)-1-oxazol-2-yl-butan-1-one]
Human FAAH
  IC50: 67 nM
Rat FAAH
  IC50: 563 nM

## O=C(CCCC1CCN(C(=O)C2CCCCC2)CC1)c1ncco1 [Example 29, 4-(1-Cyclohexanecarbonyl-piperidin-4-yl)-1-oxazol-2-yl-butan-1-one]
Human FAAH
  IC50: 45 nM
Rat FAAH
  IC50: 180 nM

## CC(C)C(=O)N1CCC(CCCC(=O)c2ncco2)CC1 [Example 30, 4-(1-Isobutyryl-piperidin-4-yl)-1-oxazol-2-yl-butan-1-one]
Human FAAH
  IC50: 250 nM
Rat FAAH
  IC50: 2250 nM

## O=C(CCCC1CCN(C(=O)C2CCCC2)CC1)c1ncco1 [Example 31, 4-(1-Cyclopentanecarbonyl-piperidin-4-yl)-1-oxazol-2-yl-butan-1-one]
Human FAAH
  IC50: 106 nM
Rat FAAH
  IC50: 288 nM

## O=C(CCCC1CCN(C(=O)CCC2CCCC2)CC1)c1ncco1 [Example 32, 4-[1-(3-Cyclopentyl-propionyl)-piperidin-4-yl]-1-oxazol-2-yl-butan-1-one]
Human FAAH
  IC50: 28 nM
Rat FAAH
  IC50: 112 nM

## O=C(CCCC1CCN(C(=O)COc2ccccc2)CC1)c1ncco1 [Example 33, 1-Oxazol-2-yl-4-[1-(2-phenoxy-acetyl)-piperidin-4-yl]-butan-1-one]
Human FAAH
  IC50: 848 nM
Rat FAAH
  IC50: 889 nM

## O=C(CCCC1CCN(C(=O)COCc2ccccc2)CC1)c1ncco1 [Example 34, 4-[1-(2-Benzyloxy-acetyl)-piperidin-4-yl]-1-oxazol-2-yl-butan-1-one]
Human FAAH
  IC50: 240 nM
Rat FAAH
  IC50: 250 nM

## O=C(CCCC1CCN(C(=O)COc2ccc(Cl)cc2)CC1)c1ncco1 [Example 35, 4-{1-[2-(4-Chloro-phenoxy)-acetyl]-piperidin-4-yl}-1-oxazol-2-yl-butan-1-one]
Human FAAH
  IC50: 19 nM
Rat FAAH
  IC50: 38 nM

## O=C(CCCC1CCN(C(=O)CCc2ccccc2)CC1)c1ncco1 [Example 36, 1-Oxazol-2-yl-4-[1-(3-phenyl-propionyl)-piperidin-4-yl]-butan-1-one]
Human FAAH
  IC50: 46 nM
Rat FAAH
  IC50: 56 nM

## O=C(CCCC1CCN(C(=O)CCc2ccc(Oc3ccccc3)cc2)CC1)c1ncco1 [Example 37, 1-Oxazol-2-yl-4-{1-[3-(4-phenoxy-phenyl)-propionyl]-piperidin-4-yl}-butan-1-one]
Human FAAH
  IC50: 22 nM
Rat FAAH
  IC50: 18 nM

## Cc1ccc(CC(=O)N2CCC(CCCC(=O)c3ncco3)CC2)cc1 [Example 38, 1-Oxazol-2-yl-4-[1-(2-p-tolyl-acetyl)-piperidin-4-yl]-butan-1-one]
Human FAAH
  IC50: 100 nM
Rat FAAH
  IC50: 100 nM
